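Values below derive from 48-hour exposures of cells grown in 96-well plates, with endpoints linearly interpolated between the two concentrations bracketing the appropriate inhibition level. Here, GI50 denotes the concentration required for 50% inhibition of growth.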 Active and inactive are the calls of the source. Cut-off read from the data, not from the text of the source: active = GI50 up to about 1.1 µM and inactive = higher.
What was measured:
Assay in all cases: NCI anticancer screen, dose series, 48 h
786-0 = test system: 786-0
A498 = test system: A498
A549 = test system: A549
ACHN = test system: ACHN
BT-549 = test system: BT-549
CAKI-1 = test system: CAKI-1
CCRF-CEM = test system: CCRF-CEM
COLO 205 = test system: COLO 205
DU-145 = test system: DU-145
EKVX = test system: EKVX
HCC 2998 = test system: HCC 2998
HCT-116 = test system: HCT-116
HCT-15 = test system: HCT-15
HL-60 = test system: HL-60
HOP-62 = test system: HOP-62
HOP-92 = test system: HOP-92
HT-29 = test system: HT-29
Hs-578T = test system: Hs-578T
IGROV-1 = test system: IGROV-1
K562 = test system: K562
KM12 = test system: KM12
LOX IMVI = test system: LOX IMVI
M14 = test system: M14
MCF7 = test system: MCF7
MDA-MB-231 = test system: MDA-MB-231
MDA-MB-435 = test system: MDA-MB-435
MDA-N = test system: MDA-N
MOLT-4 = test system: MOLT-4
Malme-3M = test system: Malme-3M
NCI-H226 = test system: NCI-H226
NCI-H23 = test system: NCI-H23
NCI-H460 = test system: NCI-H460
NCI-H522 = test system: NCI-H522
NCI/ADR-RES = test system: NCI/ADR-RES
OVCAR-3 = test system: OVCAR-3
OVCAR-4 = test system: OVCAR-4
OVCAR-5 = test system: OVCAR-5
OVCAR-8 = test system: OVCAR-8
PC-3 = test system: PC-3
RPMI-8226 = test system: RPMI-8226
RXF 393 = test system: RXF 393
SF-268 = test system: SF-268
SF-295 = test system: SF-295
SF-539 = test system: SF-539
SK-MEL-28 = test system: SK-MEL-28
SK-MEL-2 = test system: SK-MEL-2
SK-MEL-5 = test system: SK-MEL-5
SK-OV-3 = test system: SK-OV-3
SN12C = test system: SN12C
SNB-19 = test system: SNB-19
SNB-75 = test system: SNB-75
SR = test system: SR
SW-620 = test system: SW-620
T47D = test system: T47D
TK-10 = test system: TK-10
U-251 = test system: U-251
UACC-257 = test system: UACC-257
UACC-62 = test system: UACC-62
UO-31 = test system: UO-31

Cc1coc2c1C(=O)C(=O)c1c-2ccc2c1CCCC2(C)C [TANSHINONE IIA]
GI50 (786-0): 1870 nM (inactive)
GI50 (A498): 7740 nM (inactive)
GI50 (A549): 1480 nM (inactive)
GI50 (ACHN): 7330 nM (inactive)
GI50 (BT-549): 2100 nM (inactive)
GI50 (CAKI-1): 1950 nM (inactive)
GI50 (CCRF-CEM): 7520 nM (inactive)
GI50 (COLO 205): 8070 nM (inactive)
GI50 (DU-145): 2520 nM (inactive)
GI50 (EKVX): 30300 nM (inactive)
GI50 (HCC 2998): 4060 nM (inactive)
GI50 (HCT-116): 1550 nM (inactive)
GI50 (HCT-15): 673 nM
GI50 (HL-60): 1070 nM (active)
GI50 (HOP-62): 1950 nM (inactive)
GI50 (HOP-92): > 70500 nM (inactive)
GI50 (HT-29): 10500 nM (inactive)
GI50 (Hs-578T): 3730 nM (inactive)
GI50 (IGROV-1): 2040 nM (inactive)
GI50 (K562): 875 nM (active)
GI50 (KM12): 3760 nM (inactive)
GI50 (LOX IMVI): 342 nM (active)
GI50 (M14): 1060 nM (active)
GI50 (MCF7): 2180 nM (inactive)
GI50 (MDA-MB-231): 21800 nM (inactive)
GI50 (MDA-MB-435): 1480 nM (inactive)
GI50 (MDA-N): 1370 nM (inactive)
GI50 (MOLT-4): 3180 nM (inactive)
GI50 (Malme-3M): 508 nM (active)
GI50 (NCI-H226): 2290 nM (inactive)
GI50 (NCI-H23): 1140 nM (inactive)
GI50 (NCI-H460): 1170 nM (inactive)
GI50 (NCI-H522): 1540 nM (inactive)
GI50 (NCI/ADR-RES): 4580 nM (inactive)
GI50 (OVCAR-3): 303 nM (active)
GI50 (OVCAR-4): 10600 nM (inactive)
GI50 (OVCAR-5): 9420 nM (inactive)
GI50 (OVCAR-8): 6350 nM (inactive)
GI50 (PC-3): 2340 nM (inactive)
GI50 (RPMI-8226): 1940 nM (inactive)
GI50 (RXF 393): 5120 nM (inactive)
GI50 (SF-268): 3530 nM (inactive)
GI50 (SF-295): 2480 nM (inactive)
GI50 (SF-539): 2420 nM (inactive)
GI50 (SK-MEL-28): 2150 nM (inactive)
GI50 (SK-MEL-2): 2280 nM (inactive)
GI50 (SK-MEL-5): 213 nM (active)
GI50 (SK-OV-3): 21300 nM (inactive)
GI50 (SN12C): 3700 nM (inactive)
GI50 (SNB-19): 2520 nM (inactive)
GI50 (SNB-75): 3410 nM (inactive)
GI50 (SR): 757 nM (active)
GI50 (SW-620): 2420 nM (inactive)
GI50 (T47D): 2960 nM (inactive)
GI50 (TK-10): 21600 nM (inactive)
GI50 (U-251): 2510 nM (inactive)
GI50 (UACC-257): 771 nM (active)
GI50 (UACC-62): 1630 nM (inactive)
GI50 (UO-31): 2330 nM (inactive)

COC(=O)c1ccc([N+](=O)[O-])c(O)c1
GI50 (786-0): > 100000 nM (inactive)
GI50 (A498): > 100000 nM (inactive)
GI50 (A549): > 100000 nM (inactive)
GI50 (ACHN): > 100000 nM (inactive)
GI50 (BT-549): > 100000 nM (inactive)
GI50 (CAKI-1): > 100000 nM (inactive)
GI50 (CCRF-CEM): > 100000 nM (inactive)
GI50 (COLO 205): > 100000 nM (inactive)
GI50 (DU-145): > 100000 nM (inactive)
GI50 (EKVX): > 100000 nM (inactive)
GI50 (HCC 2998): > 100000 nM (inactive)
GI50 (HCT-116): > 100000 nM (inactive)
GI50 (HCT-15): > 100000 nM
GI50 (HL-60): > 100000 nM (inactive)
GI50 (HOP-62): > 100000 nM (inactive)
GI50 (HOP-92): > 100000 nM (inactive)
GI50 (HT-29): > 100000 nM (inactive)
GI50 (Hs-578T): > 100000 nM (inactive)
GI50 (IGROV-1): > 100000 nM (inactive)
GI50 (K562): > 100000 nM (inactive)
GI50 (KM12): > 100000 nM (inactive)
GI50 (LOX IMVI): > 100000 nM (inactive)
GI50 (M14): > 100000 nM (inactive)
GI50 (MCF7): > 100000 nM (inactive)
GI50 (MDA-MB-231): > 100000 nM (inactive)
GI50 (MDA-MB-435): 8550 nM (inactive)
GI50 (MDA-N): > 100000 nM (inactive)
GI50 (MOLT-4): > 100000 nM (inactive)
GI50 (Malme-3M): > 100000 nM (inactive)
GI50 (NCI-H226): > 100000 nM (inactive)
GI50 (NCI-H23): > 100000 nM (inactive)
GI50 (NCI-H460): > 100000 nM (inactive)
GI50 (NCI-H522): > 100000 nM (inactive)
GI50 (NCI/ADR-RES): > 100000 nM (inactive)
GI50 (OVCAR-3): > 100000 nM (inactive)
GI50 (OVCAR-4): 19900 nM (inactive)
GI50 (OVCAR-5): > 100000 nM (inactive)
GI50 (OVCAR-8): > 100000 nM (inactive)
GI50 (PC-3): > 100000 nM (inactive)
GI50 (RPMI-8226): > 100000 nM (inactive)
GI50 (RXF 393): > 100000 nM (inactive)
GI50 (SF-268): > 100000 nM (inactive)
GI50 (SF-295): > 100000 nM (inactive)
GI50 (SF-539): > 100000 nM (inactive)
GI50 (SK-MEL-28): > 100000 nM (inactive)
GI50 (SK-MEL-2): > 100000 nM (inactive)
GI50 (SK-MEL-5): > 100000 nM (inactive)
GI50 (SK-OV-3): > 100000 nM (inactive)
GI50 (SN12C): > 100000 nM (inactive)
GI50 (SNB-19): > 100000 nM (inactive)
GI50 (SNB-75): > 100000 nM (inactive)
GI50 (SR): > 100000 nM (inactive)
GI50 (SW-620): > 100000 nM (inactive)
GI50 (T47D): > 100000 nM (inactive)
GI50 (TK-10): > 100000 nM (inactive)
GI50 (U-251): > 100000 nM (inactive)
GI50 (UACC-257): > 100000 nM (inactive)
GI50 (UACC-62): > 100000 nM (inactive)
GI50 (UO-31): > 100000 nM (inactive)

CC(=O)c1c(C(F)(F)F)[n+]([O-])c2cc(Cl)c(Cl)cc2[n+]1[O-]
GI50 (786-0): 168 nM (active)
GI50 (A498): 1150 nM (inactive)
GI50 (A549): 575 nM (active)
GI50 (ACHN): 548 nM (active)
GI50 (BT-549): 211 nM (active)
GI50 (CAKI-1): 1440 nM (inactive)
GI50 (CCRF-CEM): 146 nM (active)
GI50 (COLO 205): 746 nM (active)
GI50 (DU-145): 1260 nM (inactive)
GI50 (EKVX): 1290 nM (inactive)
GI50 (HCC 2998): 184 nM (active)
GI50 (HCT-116): 249 nM (active)
GI50 (HCT-15): 196 nM
GI50 (HL-60): 338 nM (active)
GI50 (HOP-62): 270 nM (active)
GI50 (HOP-92): 195 nM (active)
GI50 (HT-29): 792 nM (active)
GI50 (Hs-578T): 483 nM (active)
GI50 (IGROV-1): 111 nM (active)
GI50 (K562): 977 nM (active)
GI50 (KM12): 109 nM (active)
GI50 (LOX IMVI): 157 nM (active)
GI50 (M14): 1210 nM (inactive)
GI50 (MCF7): 265 nM (active)
GI50 (MDA-MB-231): 1300 nM (inactive)
GI50 (MDA-MB-435): 1300 nM (inactive)
GI50 (MDA-N): 1120 nM (inactive)
GI50 (MOLT-4): 79.8 nM (active)
GI50 (Malme-3M): 685 nM (active)
GI50 (NCI-H226): 1460 nM (inactive)
GI50 (NCI-H23): 938 nM (active)
GI50 (NCI-H460): 242 nM (active)
GI50 (NCI-H522): 165 nM (active)
GI50 (NCI/ADR-RES): 1500 nM (inactive)
GI50 (OVCAR-3): 1360 nM (inactive)
GI50 (OVCAR-4): 1400 nM (inactive)
GI50 (OVCAR-5): 1630 nM (inactive)
GI50 (OVCAR-8): 531 nM (active)
GI50 (PC-3): 1310 nM (inactive)
GI50 (RPMI-8226): 129 nM (active)
GI50 (RXF 393): 895 nM (active)
GI50 (SF-268): 1150 nM (inactive)
GI50 (SF-295): 719 nM (active)
GI50 (SF-539): 1150 nM (inactive)
GI50 (SK-MEL-28): 1880 nM (inactive)
GI50 (SK-MEL-2): 1190 nM (inactive)
GI50 (SK-MEL-5): 796 nM (active)
GI50 (SK-OV-3): 1460 nM (inactive)
GI50 (SN12C): 1120 nM (inactive)
GI50 (SNB-19): 830 nM (active)
GI50 (SNB-75): 1070 nM (active)
GI50 (SR): 19.6 nM (active)
GI50 (SW-620): 393 nM (active)
GI50 (T47D): 338 nM (active)
GI50 (TK-10): 212 nM (active)
GI50 (U-251): 1240 nM (inactive)
GI50 (UACC-257): 762 nM (active)
GI50 (UACC-62): 1260 nM (inactive)
GI50 (UO-31): 410 nM (active)
